Test results from PubChem BioAssay AID1845198 (Molecular Pharmacology Branch, DTP, NCI, 2023).

Test system: 425362-245-T-J1 tumor spheroids, viability % test/control
Assay: Anticancer human tumor 425362-245-T-J1 patient-derived melanoma cell line growth inhibition
Conditions: spheroids with HUVEC and MSC; for IC50: curve of first compound; for viability, T/C: stronger effect = lower value
Description: Multicellular complex tumor spheroid response to DNA repair inhibitors in combination with DNA-damaging drugs
This study explores the anticancer activities of DNA-damaging drugs and inhibitors of DNA damage repair, both as single agents and in combinations. Complex tumor spheroids comprised of malignant cells, endothelial cells and mesenchymal stem cells served as an in vitro model for human solid tumors. This model system incorporates physiologically relevant features and patient-derived or established malignant cell lines with clinically relevant genetic alterations from many tumor types. Twenty-six patient-derived or established malignant cell lines were evaluated representing sarcoma, melanoma, small cell lung cancer (SCLC), non-small cell lung cancer (NSCLC), as well as bladder, ovarian and pancreatic cancers. The concentration ranges selected for each drug and investigational agent were based upon clinically achievable concentrations if the clinical Cmax of the agent was known.
Compounds. The drugs and compounds olaparib (NSC753686), talazoparib (NSC767125), berzosertib (NSC777718), elimusertib (NSC800525), nedisertib (NSC802822), VX-984 (NSC792969), AZD-1390 (NSC803789), temozolomide (NSC362856), topotecan (NSC609699), trabectedin (NSC813783), staurosporine (NSC755774), and gemcitabine (NSC613327) were obtained from the National Cancer Institute (NCI) Developmental Therapeutics Program Chemical Repository. The FDA-approved anticancer drug set is available from the Developmental Therapeutics Program at https://dtp.cancer.gov/organization/dscb/obtaining/available_plates.htm. […] The stock solutions were prepared in dimethyl sulfoxide (DMSO, Sigma-Aldrich, St. Louis, MO, cat. D2650) at 400-fold the tested concentration and stored at -70 degrees C. Prior to their use, the stock solutions were diluted in fresh medium and the final DMSO concentration in the assay was 0.25% (v/v). All drugs and investigational agents were tested over a range starting from a high concentration at or near the clinical Cmax and decreasing in half-log increments. If the clinical Cmax for an agent had not been determined, the highest concentration tested was 10 microM.
Cell Lines. The patient-derived cancer cell (PDC) lines: 156681-154-R-J1-PDC, 283228-195-R-J1-PDC, 287954-098-R-J1-PDC, 292921-168-R-J2-PDC, 349418-098-R-PDC, 425362-245-T-J1-PDC, 556581-035-R-J1-PDC, and BL0293-F563-PDC were received from the NCI Patient-Derived Models Repository (PDMR, https://pdmr.cancer.gov). The established cell lines HS-SY-2 (RRID:CVCL_8719), MPNST, and SYO-1 (RRID:CVCL_7146) were obtained from the Sloan Kettering Institute. The alveolar soft parts sarcoma cell line ASPS-1 (RRID:CVCL_S738) was established at the NCI and grown from internal seed stocks. The following established cell lines were purchased from the American Type Culture Collection (ATCC, Manassas, VA): G-401 (ATCC, cat. CRL-1441, RRID:CVCL_0270), SW982 (ATCC, cat. HTB-93, RRID:CVCL_1734), VA-ES-BJ (ATCC, cat. CRL-2138, RRID:CVCL_1785), NCI-H719 (ATCC, cat. CRL-5837, RRID:CVCL_1582), NCI-H196 (ATCC, cat. CRL-5823, RRID:CVCL_1509), NCI-H841 (ATCC, cat. CRL-5845, RRID:CVCL_1595), NCI-H1618 (ATCC, cat. CRL-5879, RRID:CVCL_1480), NCI-H1876 (ATCC, cat. CRL-5902, RRID:CVCL_1503), DMS 114 (ATCC, cat. CRL-2066; RRID:CVCL_1174), NCI-H211 (ATCC, cat. CRL-5824; RRID:CVCL_1529), and SW 1271 (ATCC, cat. CRL-2177, RRID:CVCL_1716). The small cell lung cancer cell line COR-L88 was purchased from Sigma-Aldrich (cat. 92031917-1VL, RRID:CVCL_1141). The non-small cell lung cancer cell lines NCI-H226 (RRID:CVCL_1544) and NCI-H322M (RRID:CVCL_1557) were established at the NCI and grown from internal seed stocks. Pooled donor human umbilical vein endothelial cells (HUVEC, Lonza, cat. CC-2519) and human mesenchymal stem cells (hMSC, Lonza, cat. PT-2501) were purchased from Lonza (Walkersville, MD).
Cell Culture. All cells were maintained in an incubator at 37 degrees C and 5% CO2 with 95% humidity. […]
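Also: spheroids exposed to agents for 7 days.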

## CC(C)n1c(=O)n(C)c2cnc3cc(F)c(-c4ccc(OCCCN5CCCCC5)nc4)cc3c21 + Cn1nnc2c(C(N)=O)ncn2c1=O
Second compound 1 µM
  IC50: 124 nM
Second compound 3.16 µM
  IC50: 225 nM
Second compound 10 µM
  IC50: 266 nM
Second compound 31.6 µM
  IC50: 141 nM
Second compound 100 µM
  IC50: < 31.6 nM
Second compound 1 µM, first compound 0.0316 µM
  viability, T/C: 57.7%
Second compound 1 µM, first compound 0.1 µM
  viability, T/C: 55.8%
Second compound 1 µM, first compound 0.316 µM
  viability, T/C: 36.1%
Second compound 1 µM, first compound 1 µM
  viability, T/C: 20.8%
Second compound 1 µM, first compound 3.16 µM
  viability, T/C: 13.7%
Second compound 1 µM, first compound 10 µM
  viability, T/C: 5.19%
Second compound 3.16 µM, first compound 0.0316 µM
  viability, T/C: 77.4%
Second compound 3.16 µM, first compound 0.1 µM
  viability, T/C: 67%
Second compound 3.16 µM, first compound 0.316 µM
  viability, T/C: 43%
Second compound 3.16 µM, first compound 1 µM
  viability, T/C: 20.6%
Second compound 3.16 µM, first compound 3.16 µM
  viability, T/C: 19.5%
Second compound 3.16 µM, first compound 10 µM
  viability, T/C: 6.63%
Second compound 10 µM, first compound 0.0316 µM
  viability, T/C: 74.2%
Second compound 10 µM, first compound 0.1 µM
  viability, T/C: 72%
Second compound 10 µM, first compound 0.316 µM
  viability, T/C: 45.1%
Second compound 10 µM, first compound 1 µM
  viability, T/C: 21.4%
Second compound 10 µM, first compound 3.16 µM
  viability, T/C: 18.9%
Second compound 10 µM, first compound 10 µM
  viability, T/C: 5.99%
Second compound 31.6 µM, first compound 0.0316 µM
  viability, T/C: 67.8%
Second compound 31.6 µM, first compound 0.1 µM
  viability, T/C: 58.5%
Second compound 31.6 µM, first compound 0.316 µM
  viability, T/C: 32.8%
Second compound 31.6 µM, first compound 1 µM
  viability, T/C: 19.8%
Second compound 31.6 µM, first compound 3.16 µM
  viability, T/C: 14.5%
Second compound 31.6 µM, first compound 10 µM
  viability, T/C: 6.37%
Second compound 100 µM, first compound 0.0316 µM
  viability, T/C: 45.8%
Second compound 100 µM, first compound 0.1 µM
  viability, T/C: 23.7%
Second compound 100 µM, first compound 0.316 µM
  viability, T/C: 17.5%
Second compound 100 µM, first compound 1 µM
  viability, T/C: 12.1%
Second compound 100 µM, first compound 3.16 µM
  viability, T/C: 8.75%
Second compound 100 µM, first compound 10 µM
  viability, T/C: 5.3%
